According to patent US20170027172A1, “USE OF SUBSTITUTE OXO TETRAHYDROQUINOLINE SULFONAMIDES OR SALTS THEREOF FOR RAISING STRESS TOLERANCE OF PLANTS” (BAYER CROPSCIENCE AKTIENGESELLSCHAFT, priority 2014, published 2017):

Tests used:
Triticum aestivum [1] = test: Drought stress greenhouse test Part B, visual scoring vs stressed control plants; format: in vivo; conditions: spray application 250 g/ha, efficacy range of 2-3 pots
Description: (§1) Seeds of monocotyledonous and dicotyledonous crop plants were sown in sandy loam in plastic pots, covered with soil or sand and cultivated in a greenhouse under good growth conditions. The trial plants were treated at the early leaf stage (BBCH10-BBCH13). To assure uniform water supply before commencement of stress, the potted plants were supplied with water by dam irrigation prior to substance application.
(§2) The inventive compounds formulated in the form of wettable powders (WP) were sprayed onto the green parts of the plants as an aqueous suspension at an equivalent water application rate of 600 l/ha with addition of 0.2% wetting agent (e.g. agrotin). Substance application was followed immediately by stress treatment of the plants.
(§3) Drought stress was induced by gradual drying out under the following conditions:
“Day”: 14 hours with illumination at 26-30° C. “Night”: 10 hours without illumination at 18-20° C.
(§4) The duration of the respective stress phases was guided mainly by the condition of the stressed control plants. It was ended (by re-irrigating and transfer to a greenhouse with good growth conditions) as soon as irreversible damage was observed on the stressed control plants.
(§5) The end of the stress phase was followed by an about 4-7-day recovery phase, during which the plants were once again kept under good growth conditions in a greenhouse. The duration of the recovery phase was guided mainly by when the trial plants had attained a state which enabled visual scoring of potential effects, and is therefore variable.
(§6) Once this juncture had been reached, the appearance of the plants treated with test substances was recorded in comparison to the stressed control plants by the following categories:
For each substance and dosage, 2-3 pots were treated and evaluated.
(§7) BRSNS=Brassica napus TRZAS=Triticum aestivum

[2] = biological target: T1, phosphatase ABI1 via the co-regulator RCAR11/PYR1 (Arabidopsis thaliana, UniProt O49686+P49597); test: In vitro inhibition of the phosphatase ABI1 via the co-regulator RCAR11/PYR1, MUP dephosphorylation; format: biochemical; set-up: dose or concentration left out as unconfirmed; conditions: in a solution of DMSO and water; fluorescence at 460 nm
T1 sequence (O49686 1-191): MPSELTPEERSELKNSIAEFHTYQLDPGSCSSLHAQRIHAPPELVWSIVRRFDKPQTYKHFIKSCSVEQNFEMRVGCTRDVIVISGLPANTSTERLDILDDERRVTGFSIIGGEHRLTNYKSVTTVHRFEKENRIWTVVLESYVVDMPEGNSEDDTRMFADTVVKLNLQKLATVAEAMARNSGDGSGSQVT
T1 sequence (P49597 1-434): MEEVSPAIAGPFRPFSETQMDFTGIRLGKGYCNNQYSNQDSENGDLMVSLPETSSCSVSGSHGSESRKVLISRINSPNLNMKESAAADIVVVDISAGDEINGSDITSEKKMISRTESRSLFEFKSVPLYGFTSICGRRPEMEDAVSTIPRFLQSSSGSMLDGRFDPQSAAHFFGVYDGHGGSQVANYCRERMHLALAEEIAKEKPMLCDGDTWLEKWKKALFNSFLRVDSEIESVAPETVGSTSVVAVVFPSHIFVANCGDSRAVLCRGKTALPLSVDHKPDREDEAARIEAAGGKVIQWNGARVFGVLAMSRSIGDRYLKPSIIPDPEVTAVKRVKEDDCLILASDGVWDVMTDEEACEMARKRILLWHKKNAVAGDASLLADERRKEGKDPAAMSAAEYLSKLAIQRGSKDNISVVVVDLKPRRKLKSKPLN
How it was run: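 Arabidopsis ABI1 (0.15 μg/well) with RCAR11/PYR1 (0.30 μg/well) in Tris-HCl pH 8, NaCl, MnCl2, DTT, Tween20; MUP substrate, 20 min at 35 °C, fluorescence ex 340/em 460 nm. Compounds tested at 5 mM in DMSO/water, optionally pre-treated with porcine liver esterase; inhibition banded ≥90/70/50/30%.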

Triticum aestivum [3] = test: Drought stress greenhouse test Part A, visual scoring vs stressed control plants; format: in vivo; set-up: key: 0: no effect; 10: slight positive effect; 20: clear positive effect; 30: strong positive effect; conditions: average score of 3 pots
Description: as §1, §2, §3
“Day”: 14 hours with illumination at ˜26-30° C. “Night”: 10 hours without illumination at ˜18-20° C.
as §4
as §5, with “and was” for “and is”
as §6
In order to rule out any influence on the effects observed by any fungicidal or insecticidal action of the test compounds, it was additionally ensured that the tests proceeded without fungal infection or insect infestation.
In each test, for each crop and dosage, plants in 3 pots were treated and evaluated separately. The values reported in Tables A-1 to A-2 below for the effects obtained are averages from the scores obtained.
as §7

Triticum aestivum [4] = test: Drought stress greenhouse test Part C, visual scoring vs stressed control plants; format: in vivo; conditions: efficacy range of 3-4 pots
Description: Seeds of monocotyledonous and dicotyledonous crop plants were sown in sandy loam in plastic or wood-fiber pots, covered with soil or sand and cultivated in a greenhouse under good growth conditions. The trial plants were treated at the early leaf stage (BBCH10-BBCH13). To assure uniform water supply before commencement of stress, the potted plants were supplied with water by dam irrigation prior to substance application. The inventive compounds were first formulated as wettable powders (WP) or dissolved in a solvent mixture. The further dilution was effected with water supplemented with 0.2% wetting agent (e.g. agrotin). The finished spray liquor was sprayed onto the green parts of the plant at an equivalent water application rate of 600 l/ha. Substance application was followed immediately by stress treatment of the plants. For this purpose, the wood-fiber pots were transferred in plastic inserts in order to prevent them from subsequently drying out too quickly. Drought stress was induced by gradual drying out under the following conditions: “Day”: 14 hours with illumination at 26-30° C. “Night”: 10 hours without illumination at 18-20° C. The duration of the respective stress phases was guided mainly by the condition of the stressed control plants. It was ended (by re-irrigating and transfer to a greenhouse with good growth conditions) as soon as irreversible damage was observed on the stressed control plants. The end of the stress phase was followed by an about 4-7-day recovery phase, during which the plants were once again kept under good growth conditions in a greenhouse. The duration of the recovery phase was guided mainly by when the trial plants had attained a state which enabled visual scoring of potential effects, and was therefore variable. Once this juncture had been reached, the appearance of the plants treated with test substances was recorded in comparison to the stressed control plants by the following categories: [table] For each substance and dosage, 3-4 pots were treated and evaluated. […] BRSNS=Brassica napus TRZAS=Triticum aestivum

Triticum aestivum [5] = test: Drought stress test on wheat Part D, reduction in damage intensity from fresh weights; format: in vivo; conditions: efficacy = reduction in damage intensity (fresh weight) under drought stress, 250 g/ha, at least three repeats
From the text: Wheat grains were sown in a standardized number in sandy loam soil plastic pots, covered with soil or sand and grown in a greenhouse under good growth conditions. Pots with uneven degrees of emergence were excluded prior to the start of the trial. The treatment with test substances was effected at the early leaf stage (BBCH10-BBCH13). To assure uniform water supply, the potted plants were supplied with water by dam irrigation prior to substance application. The inventive compounds were first formulated as wettable powders (WP) or dissolved in a solvent mixture. The further dilution was effected with water supplemented with 0.2% wetting agent (e.g. agrotin). The finished spray liquor was sprayed onto the green parts of the plant at an equivalent water application rate of 600 l/ha. Substance application was followed immediately by stress treatment of the plants. Drought stress was induced by gradual drying out under the following conditions: “Day”: 14 hours with illumination at 26-30° C. “Night”: 10 hours without illumination at 18-20° C. The duration of the respective stress phases was guided mainly by the condition of the stressed control plants. It was ended (by re-irrigating and transfer to a greenhouse with good growth conditions) as soon as irreversible damage was observed on the stressed control plants. The end of the stress phase was followed by an about 7-day recovery phase, during which the plants were once again kept under good growth conditions in a greenhouse. The exact duration of the recovery phase was variable for reasons related to the trial. At the end of the recovery phase, the fresh weights of the plant parts above ground were determined. By comparison with unstressed control plants which were kept under good growth conditions over the entire duration of the trial, percentage damage intensities were first calculated from the fresh weight values. The reduction in damage intensity resulting from treatment with test substance was then calculated by the following formula: [formula] EF: Efficacy DIs: Damage intensity of the stressed control plants DIt: Damage intensity of the stressed plants treated with test compound The values reported in table D-1 below are results from at least three repeats. BRSNS=Brassica napus TRZAS=Triticum aestivum

ABI1 inhibition [2] | Structure (SMILES) | Effect (TRZAS) (Triticum aestivum [4]; spray application 250 g/ha) | further results
+++ (90%>inhibition≧70%) | O=C1CCc2cc(NS(=O)(=O)Cc3ccc(F)cc3)ccc2N1CC(F)F [A1-158] | – | Effect (TRZAS) (Triticum aestivum [1]): 10-20
++++ (inhibition≧90%) | Cc1ccc(CS(=O)(=O)Nc2ccc3c(c2)CCC(=O)N3CC2CC2)cc1 [A19-152] | – | Effect (TRZAS) (Triticum aestivum [3]; spray application 25 g/ha): 20
++++ (inhibition≧90%) | N#Cc1ccc(CS(=O)(=O)Nc2ccc3c(c2)CCC(=O)N3CC2CC2)cc1 [A19-181] | – | Effect (TRZAS) (Triticum aestivum [1]): 10-20
++ (70%>inhibition≧50%) | N#Cc1cccc(CS(=O)(=O)Nc2ccc3c(c2)CCC(=O)N3CC2CC2)c1 [A19-182] | – | Effect (TRZAS) (Triticum aestivum [3]; spray application 25 g/ha): 20; Effect (TRZAS) (Triticum aestivum [3]; spray application 250 g/ha): 20-30
++++ (inhibition≧90%) | Cc1ccc(CS(=O)(=O)Nc2ccc3c(c2)CCC(=O)N3CC2CC2)cc1F [A19-357, N-[1-(Cyclopropylmethyl)-2-oxo-1,2,3,4-tetrahydroquinolin-6-yl]-1-(3-fluoro-4-methylphenyl)methanesulfonamide] | – | Effect (TRZAS) (Triticum aestivum [1]): 10-20
++++ (inhibition≧90%) | COCCN1C(=O)CCc2cc(NS(=O)(=O)Cc3ccc(Cl)cc3)ccc21 [A38-165] | 10-30 | –
+++ (90%>inhibition≧70%) | Cc1ccc(CS(=O)(=O)Nc2ccc3c(c2)CCC(=O)N3CCSC(F)(F)F)cc1 [A42-152] | – | Effect (TRZAS) (Triticum aestivum [4]; spray application 25 g/ha): 10-20
– | O=C1CCc2cc(NS(=O)(=O)Cc3ccc(C(F)(F)F)cc3)ccc2N1CC12CC3CC(CC(C3)C1)C2 [A46-178] | – | Effect (TRZAS) (Triticum aestivum [4]; spray application 25 g/ha): 20-30
++++ (inhibition≧90%) | COC(=O)CN1C(=O)CCc2cc(NS(=O)(=O)Cc3ccc(C)cc3)ccc21 [A50-152] | 10-20 | –
– | COC(=O)CN1C(=O)CCc2cc(NS(=O)(=O)Cc3cccc(Br)c3)ccc21 [A50-173] | – | Effect (TRZAS) (Triticum aestivum [4]; spray application 25 g/ha): 10-20
+++ (90%>inhibition≧70%) | COC(=O)CN1C(=O)CCc2cc(NS(=O)(=O)Cc3ccc([N+](=O)[O-])cc3)ccc21 [A50-175] | – | Effect (TRZAS) (Triticum aestivum [4]; spray application 25 g/ha): 10-20
– | COC(=O)CN1C(=O)CCc2cc(NS(=O)(=O)Cc3cccc(C#N)c3)ccc21 [A50-182] | 10-20 | –
++++ (inhibition≧90%) | COC(=O)CCN1C(=O)CCc2cc(NS(=O)(=O)Cc3ccc(Br)cc3)ccc21 [A51-172] | 10-20 | –
– | CC1(C)CC(=O)N(CC(F)(F)F)c2ccc(NS(=O)(=O)c3ccc(C#N)cc3)cc21 [B2-45] | – | Effect (TRZAS) (Triticum aestivum [3]; spray application 25 g/ha): 20
– | CC1(C)CC(=O)N(CC(F)(F)F)c2ccc(NS(=O)(=O)Cc3ccc(Cl)cc3)cc21 [B2-165] | – | Effect (TRZAS) (Triticum aestivum [3]; spray application 25 g/ha): 20
– | CC1(C)CC(=O)N(CC(F)(F)F)c2ccc(NS(=O)(=O)CCc3ccc(Cl)cc3)cc21 [B2-291] | – | Effect (TRZAS) (Triticum aestivum [3]; spray application 25 g/ha): 20; Effect (TRZAS) (Triticum aestivum [3]; spray application 250 g/ha): 30
– | COC(=O)CN1C(=O)CC(C)(C)c2cc(NS(=O)(=O)Cc3ccc(Cl)cc3)ccc21 [B50-165] | 10-20 | –
– | COC(=O)CCN1C(=O)CC(C)(C)c2cc(NS(=O)(=O)Cc3ccc(C)cc3)ccc21 [B51-152] | 10-20 | EF [%] (TRZAS) (Triticum aestivum [5]): 16%
– | COC(=O)CCN1C(=O)CC(C)(C)c2cc(NS(=O)(=O)Cc3ccc(Br)cc3)ccc21 [B51-172] | – | Effect (TRZAS) (Triticum aestivum [4]; spray application 25 g/ha): 10-20
– | CCOC(=O)CCN1C(=O)CC(C)(C)c2cc(NS(=O)(=O)Cc3ccc(C#N)cc3)ccc21 [B52-181] | 10-20 | EF [%] (TRZAS) (Triticum aestivum [5]): 14%
– | CCC1(C)CC(=O)N(CC2CC2)c2ccc(NS(=O)(=O)Cc3ccc(F)cc3)cc21 (stereo not drawn) [F3-158] | – | Effect (TRZAS) (Triticum aestivum [4]; spray application 25 g/ha): 10-20
– | CCC1(C)CC(=O)N(CC2CC2)c2ccc(NS(=O)(=O)Cc3cccc(Cl)c3)cc21 (stereo not drawn) [F3-166] | 10-20 | –
– | CCC1(C)CC(=O)N(CCOC)c2ccc(NS(=O)(=O)Cc3ccccc3)cc21 (stereo not drawn) [F7-151] | – | Effect (TRZAS) (Triticum aestivum [4]; spray application 25 g/ha): 10-20
– | CCC1(C)CC(=O)N(CCOC)c2ccc(NS(=O)(=O)Cc3ccc(F)cc3)cc21 (stereo not drawn) [F7-158] | 10-20 | –
– | CCC1(C)CC(=O)N(CCOC)c2ccc(NS(=O)(=O)Cc3cccc(Cl)c3)cc21 (stereo not drawn) [F7-166] | 10-20 | –
– | COCCN1C(=O)CC2(CCCCC2)c2cc(NS(=O)(=O)Cc3cccc(Cl)c3)ccc21 [I5-166] | 10-20 | –
– | COCCN1C(=O)CC2(CCCCC2)c2cc(NS(=O)(=O)Cc3ccc(C(F)(F)F)cc3)ccc21 [I5-178] | 10-30 | –
– | O=C1CC2(CCC2)c2cc(NS(=O)(=O)Cc3ccc(Cl)cc3)ccc2N1CC1CC1 [J3-165] | 10-20 | –
